# Laboratory results reported in US9340590B2 (priority 2011, dated 2016).
# Positions of bridges follow the written chain, without caps; N, C: chain ends. Non-standard residues stand in square brackets, D forms with d. Residues, ends and D or L forms follow the SMILES beside them. Groups on a side chain read outwards from the residue. Arg(Me2s) = CN=C(NC)NCCC[C@H](N)C(=O)O; Arg(Me) = CNC(=N)NCCC[C@H](N)C(=O)O; hArg = N=C(N)NCCCC[C@H](N)C(=O)O; Pra = C#CC[C@H](N)C(=O)O
# Key:
# [1] = molecular target: hNav1.5 (Homo sapiens, UniProt Q14524); assay: cell-based
# [2] = molecular target: hNav1.7 (Homo sapiens, UniProt Q15858); assay: cell-based; conditions: Nav1.7 Use IC50
# Chain of hNav1.7 (Q15858 whole entry, looked up): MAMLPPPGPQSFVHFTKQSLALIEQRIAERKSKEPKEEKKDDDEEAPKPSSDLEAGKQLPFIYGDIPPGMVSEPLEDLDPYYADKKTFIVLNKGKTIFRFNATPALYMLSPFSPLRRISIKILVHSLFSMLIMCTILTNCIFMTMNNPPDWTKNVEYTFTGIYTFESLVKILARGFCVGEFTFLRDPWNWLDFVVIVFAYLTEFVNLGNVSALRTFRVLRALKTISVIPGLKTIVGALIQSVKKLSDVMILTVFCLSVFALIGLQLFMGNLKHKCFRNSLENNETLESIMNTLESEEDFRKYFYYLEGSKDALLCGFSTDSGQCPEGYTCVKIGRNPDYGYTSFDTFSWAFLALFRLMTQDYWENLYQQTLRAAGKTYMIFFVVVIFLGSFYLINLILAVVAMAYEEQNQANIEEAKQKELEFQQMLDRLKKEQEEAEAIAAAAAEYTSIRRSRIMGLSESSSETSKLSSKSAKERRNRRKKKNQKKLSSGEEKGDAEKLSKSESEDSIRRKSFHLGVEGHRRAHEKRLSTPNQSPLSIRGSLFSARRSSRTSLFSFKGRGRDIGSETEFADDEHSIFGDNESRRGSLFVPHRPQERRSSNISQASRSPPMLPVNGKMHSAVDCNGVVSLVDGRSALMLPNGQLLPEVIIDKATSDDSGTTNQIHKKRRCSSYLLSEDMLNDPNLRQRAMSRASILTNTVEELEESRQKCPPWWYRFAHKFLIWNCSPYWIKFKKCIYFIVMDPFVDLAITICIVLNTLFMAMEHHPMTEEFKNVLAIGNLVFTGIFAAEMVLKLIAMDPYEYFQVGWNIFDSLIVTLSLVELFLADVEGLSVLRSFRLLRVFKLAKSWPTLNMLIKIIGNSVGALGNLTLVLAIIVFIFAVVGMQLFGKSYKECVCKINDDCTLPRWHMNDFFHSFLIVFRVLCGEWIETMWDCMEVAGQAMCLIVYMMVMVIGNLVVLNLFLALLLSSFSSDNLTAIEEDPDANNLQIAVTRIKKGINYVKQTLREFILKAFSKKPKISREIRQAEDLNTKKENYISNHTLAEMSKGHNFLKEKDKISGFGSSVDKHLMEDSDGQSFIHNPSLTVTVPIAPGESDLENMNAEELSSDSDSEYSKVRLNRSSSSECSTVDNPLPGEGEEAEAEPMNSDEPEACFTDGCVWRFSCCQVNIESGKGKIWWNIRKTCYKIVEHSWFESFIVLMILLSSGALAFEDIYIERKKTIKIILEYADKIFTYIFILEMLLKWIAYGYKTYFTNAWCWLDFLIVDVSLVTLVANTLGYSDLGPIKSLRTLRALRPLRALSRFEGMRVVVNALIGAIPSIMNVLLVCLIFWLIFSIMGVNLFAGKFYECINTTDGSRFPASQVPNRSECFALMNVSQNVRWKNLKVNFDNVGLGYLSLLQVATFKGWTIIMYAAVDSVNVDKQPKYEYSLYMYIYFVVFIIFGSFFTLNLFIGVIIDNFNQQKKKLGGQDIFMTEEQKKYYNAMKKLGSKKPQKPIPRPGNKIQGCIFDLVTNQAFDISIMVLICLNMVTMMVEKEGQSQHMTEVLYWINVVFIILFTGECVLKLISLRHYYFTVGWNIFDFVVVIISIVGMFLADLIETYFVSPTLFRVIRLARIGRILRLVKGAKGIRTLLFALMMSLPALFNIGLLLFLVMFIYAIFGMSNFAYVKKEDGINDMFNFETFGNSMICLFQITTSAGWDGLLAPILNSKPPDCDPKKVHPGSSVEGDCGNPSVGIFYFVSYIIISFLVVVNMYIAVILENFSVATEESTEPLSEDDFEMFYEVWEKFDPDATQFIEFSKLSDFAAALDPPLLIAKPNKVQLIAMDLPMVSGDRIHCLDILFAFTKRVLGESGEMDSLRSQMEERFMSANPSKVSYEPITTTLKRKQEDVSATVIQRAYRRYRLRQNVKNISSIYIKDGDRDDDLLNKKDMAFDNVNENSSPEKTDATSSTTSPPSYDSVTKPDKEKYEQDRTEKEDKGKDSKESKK
# Chain of hNav1.5 (Q14524 whole entry, looked up): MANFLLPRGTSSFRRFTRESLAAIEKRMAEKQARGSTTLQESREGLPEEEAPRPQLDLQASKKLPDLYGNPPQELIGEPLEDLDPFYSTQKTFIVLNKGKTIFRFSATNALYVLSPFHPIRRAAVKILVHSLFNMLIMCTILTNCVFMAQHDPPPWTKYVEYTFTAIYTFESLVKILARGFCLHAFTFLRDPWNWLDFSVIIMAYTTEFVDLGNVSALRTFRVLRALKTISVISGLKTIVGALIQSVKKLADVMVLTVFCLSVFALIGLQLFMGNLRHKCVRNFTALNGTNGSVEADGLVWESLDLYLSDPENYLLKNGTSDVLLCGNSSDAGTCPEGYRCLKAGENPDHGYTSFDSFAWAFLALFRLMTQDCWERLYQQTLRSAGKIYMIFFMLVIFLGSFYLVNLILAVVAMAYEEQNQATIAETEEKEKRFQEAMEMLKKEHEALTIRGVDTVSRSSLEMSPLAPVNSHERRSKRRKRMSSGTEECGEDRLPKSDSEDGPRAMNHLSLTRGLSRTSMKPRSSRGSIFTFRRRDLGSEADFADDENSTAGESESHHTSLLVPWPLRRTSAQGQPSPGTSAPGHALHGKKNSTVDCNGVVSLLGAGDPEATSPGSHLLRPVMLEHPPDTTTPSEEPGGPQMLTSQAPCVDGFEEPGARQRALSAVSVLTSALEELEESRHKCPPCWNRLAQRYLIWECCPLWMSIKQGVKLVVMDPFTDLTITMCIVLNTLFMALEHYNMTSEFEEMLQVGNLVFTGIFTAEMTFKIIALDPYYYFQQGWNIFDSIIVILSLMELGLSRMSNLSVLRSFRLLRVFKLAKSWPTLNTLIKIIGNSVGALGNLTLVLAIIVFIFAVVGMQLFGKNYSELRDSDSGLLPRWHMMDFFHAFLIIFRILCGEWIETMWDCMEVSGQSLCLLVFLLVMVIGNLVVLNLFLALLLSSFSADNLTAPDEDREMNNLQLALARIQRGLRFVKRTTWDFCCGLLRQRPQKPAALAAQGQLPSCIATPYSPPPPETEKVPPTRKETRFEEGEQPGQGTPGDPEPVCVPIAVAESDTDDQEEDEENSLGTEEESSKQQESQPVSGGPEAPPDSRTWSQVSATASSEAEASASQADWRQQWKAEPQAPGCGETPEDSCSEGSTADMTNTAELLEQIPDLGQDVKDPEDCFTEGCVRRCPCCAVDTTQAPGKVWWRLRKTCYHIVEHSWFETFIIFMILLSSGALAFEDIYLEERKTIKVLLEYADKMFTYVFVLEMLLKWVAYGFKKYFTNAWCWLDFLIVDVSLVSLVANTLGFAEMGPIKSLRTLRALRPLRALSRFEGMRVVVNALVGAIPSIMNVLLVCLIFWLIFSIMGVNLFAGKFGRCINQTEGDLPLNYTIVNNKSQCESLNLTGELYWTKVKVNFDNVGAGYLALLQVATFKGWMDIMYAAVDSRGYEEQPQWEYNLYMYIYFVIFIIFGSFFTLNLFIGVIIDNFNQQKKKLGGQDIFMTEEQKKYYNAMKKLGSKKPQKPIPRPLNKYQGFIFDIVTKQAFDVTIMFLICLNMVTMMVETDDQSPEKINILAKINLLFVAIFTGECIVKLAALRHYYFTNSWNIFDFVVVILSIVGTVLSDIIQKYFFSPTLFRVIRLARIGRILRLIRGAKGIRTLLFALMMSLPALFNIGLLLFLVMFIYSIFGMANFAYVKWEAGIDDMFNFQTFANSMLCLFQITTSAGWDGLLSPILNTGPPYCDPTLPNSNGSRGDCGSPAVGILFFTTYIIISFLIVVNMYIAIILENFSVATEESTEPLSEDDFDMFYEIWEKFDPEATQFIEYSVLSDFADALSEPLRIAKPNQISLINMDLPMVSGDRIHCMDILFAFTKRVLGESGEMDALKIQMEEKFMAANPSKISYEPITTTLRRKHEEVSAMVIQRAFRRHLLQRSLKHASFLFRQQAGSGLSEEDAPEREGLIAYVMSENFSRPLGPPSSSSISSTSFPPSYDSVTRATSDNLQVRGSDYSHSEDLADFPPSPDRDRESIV
Structure (SMILES),IC50 [1] [µM],IC50 [2] [nM]
"C#CC[C@H](NC(C)=O)C(=O)NCCCC[C@@H]1NC(=O)[C@H](CC(=O)O)NC(=O)[C@@H]2CCCN2C(=O)[C@H]([C@@H](C)CC)NC(=O)[C@@H]2CSSC[C@@H]3NC(=O)[C@H](C(C)C)NC(=O)[C@H](CC(C)C)NC(=O)[C@H](CC(N)=O)NC(=O)[C@@H]4CCCN4C(=O)[C@H](CCCNC(=N)N)NC(=O)[C@H](CSSC[C@H](NC(=O)[C@@H](N)CC(=O)O)C(=O)N[C@@H](CC(C)C)C(=O)NCC(=O)N[C@@H](C)C(=O)N[C@@H](Cc4ccccc4)C(=O)N[C@@H](CCCNC(=N)N)C(=O)N[C@@H](CCCCN)C(=O)N2)NC(=O)[C@H](CSSC[C@@H](C(=O)N[C@@H](CCCCN)C(=O)N[C@@H](Cc2ccc(O)cc2)C(=O)N[C@H](C(=O)N[C@@H](Cc2ccccc2)C(N)=O)C(C)C)NC(=O)[C@H](Cc2c[nH]c4ccccc24)NC(=O)[C@H](CCCCN)NC(=O)[C@H](Cc2c[nH]cn2)NC(=O)[C@H]([C@@H](C)O)NC(=O)[C@H](CCCNC(=N)N)NC(=O)[C@H](CO)NC3=O)NC(=O)[C@H](CCCCN)NC(=O)[C@H](CC(=O)O)NC1=O [[Ala5;Phe6;K(Ac-Pra)13]GpTx-1(1-34)] (H-DCLGAFRKCIPDK([Pra-Ac])DKCCRPNLVCSRTHKWCKYVF-NH2; disulfide 2-17, 9-23, 16-30)",> 10,11
"CC[C@H](C)[C@@H]1NC(=O)[C@@H]2CSSC[C@@H]3NC(=O)[C@H](C(C)C)NC(=O)[C@H](CC(C)C)NC(=O)[C@H](CC(N)=O)NC(=O)[C@@H]4CCCN4C(=O)[C@H](CCCNC(=N)N)NC(=O)[C@H](CSSC[C@H](NC(=O)[C@@H](N)CC(=O)O)C(=O)N[C@@H](CC(C)C)C(=O)NCC(=O)N[C@@H](C)C(=O)N[C@@H](CCSC)C(=O)N[C@@H](CCCNC(=N)N)C(=O)N[C@@H](CCCCN)C(=O)N2)NC(=O)[C@H](CSSC[C@@H](C(=O)N[C@@H](CCCCN)C(=O)N[C@@H](Cc2ccc(O)cc2)C(=O)N[C@H](C(=O)N[C@@H](Cc2ccccc2)C(N)=O)C(C)C)NC(=O)[C@H](Cc2c[nH]c4ccccc24)NC(=O)[C@H](CCCNC(=N)NC)NC(=O)[C@H](Cc2c[nH]cn2)NC(=O)[C@H]([C@@H](C)O)NC(=O)[C@H](CCCNC(=N)N)NC(=O)[C@H](CO)NC3=O)NC(=O)[C@H](CCCCN)NC(=O)[C@H](CC(=O)O)NC(=O)[C@H](CC(N)=O)NC(=O)[C@H](CC(=O)O)NC(=O)[C@@H]2CCCN2C1=O [[Ala5;R(Me)28]GpTx-1(1-34)] (H-DCLGAMRKCIPDNDKCCRPNLVCSRTH[Arg(Me)]WCKYVF-NH2; disulfide 2-17, 9-23, 16-30)",> 10,51
"CC[C@H](C)[C@@H]1NC(=O)[C@@H]2CSSC[C@@H]3NC(=O)[C@H](C(C)C)NC(=O)[C@H](CC(C)C)NC(=O)[C@H](CC(N)=O)NC(=O)[C@@H]4CCCN4C(=O)[C@H](CCCNC(=N)N)NC(=O)[C@H](CSSC[C@H](NC(=O)[C@@H](N)CC(=O)O)C(=O)N[C@@H](CC(C)C)C(=O)NCC(=O)N[C@@H](C)C(=O)N[C@@H](CCSC)C(=O)N[C@@H](CCCNC(=N)N)C(=O)N[C@@H](CCCCN)C(=O)N2)NC(=O)[C@H](CSSC[C@@H](C(=O)N[C@@H](CCCCN)C(=O)N[C@@H](Cc2ccc(O)cc2)C(=O)N[C@H](C(=O)N[C@@H](Cc2ccccc2)C(N)=O)C(C)C)NC(=O)[C@H](Cc2c[nH]c4ccccc24)NC(=O)[C@H](CCCNC(=NC)NC)NC(=O)[C@H](Cc2c[nH]cn2)NC(=O)[C@H]([C@@H](C)O)NC(=O)[C@H](CCCNC(=N)N)NC(=O)[C@H](CO)NC3=O)NC(=O)[C@H](CCCCN)NC(=O)[C@H](CC(=O)O)NC(=O)[C@H](CC(N)=O)NC(=O)[C@H](CC(=O)O)NC(=O)[C@@H]2CCCN2C1=O [[Ala5;SDMA28]GpTx-1(1-34)] (H-DCLGAMRKCIPDNDKCCRPNLVCSRTH[Arg(Me2s)]WCKYVF-NH2; disulfide 2-17, 9-23, 16-30)",> 10,41
"CC[C@H](C)[C@@H]1NC(=O)[C@@H]2CSSC[C@@H]3NC(=O)[C@H](C(C)C)NC(=O)[C@H](CC(C)C)NC(=O)[C@H](CC(N)=O)NC(=O)[C@@H]4CCCN4C(=O)[C@H](CCCNC(=N)N)NC(=O)[C@H](CSSC[C@H](NC(=O)[C@@H](N)CC(=O)O)C(=O)N[C@@H](CC(C)C)C(=O)NCC(=O)N[C@@H](C)C(=O)N[C@@H](CCSC)C(=O)N[C@@H](CCCNC(=N)N)C(=O)N[C@@H](CCCCN)C(=O)N2)NC(=O)[C@H](CSSC[C@@H](C(=O)N[C@@H](CCCCN)C(=O)N[C@@H](Cc2ccc(O)cc2)C(=O)N[C@H](C(=O)N[C@@H](Cc2ccccc2)C(N)=O)C(C)C)NC(=O)[C@H](Cc2c[nH]c4ccccc24)NC(=O)[C@H](CO)NC(=O)[C@H](Cc2c[nH]cn2)NC(=O)[C@H]([C@@H](C)O)NC(=O)[C@H](CCCNC(=N)N)NC(=O)[C@H](CO)NC3=O)NC(=O)[C@H](CCCCN)NC(=O)[C@H](CC(=O)O)NC(=O)[C@H](CC(N)=O)NC(=O)[C@H](CC(=O)O)NC(=O)[C@@H]2CCCN2C1=O [[Ala5;Ser28]GpTx-1(1-34)] (H-DCLGAMRKCIPDNDKCCRPNLVCSRTHSWCKYVF-NH2; disulfide 2-17, 9-23, 16-30)",> 10,45
"CC[C@H](C)[C@@H]1NC(=O)[C@@H]2CSSC[C@@H]3NC(=O)[C@H](C(C)C)NC(=O)[C@H](CC(C)C)NC(=O)[C@H](CC(N)=O)NC(=O)[C@@H]4CCCN4C(=O)[C@H](CCCNC(=N)N)NC(=O)[C@H](CSSC[C@H](NC(=O)[C@@H](N)CC(=O)O)C(=O)N[C@@H](CC(C)C)C(=O)NCC(=O)N[C@@H](C)C(=O)N[C@@H](CCSC)C(=O)N[C@@H](CCCNC(=N)N)C(=O)N[C@@H](CCCCN)C(=O)N2)NC(=O)[C@H](CSSC[C@@H](C(=O)N[C@@H](CCCCN)C(=O)N[C@@H](Cc2ccc(O)cc2)C(=O)N[C@H](C(=O)N[C@@H](Cc2ccccc2)C(N)=O)C(C)C)NC(=O)[C@H](Cc2c[nH]c4ccccc24)NC(=O)[C@H](CCCCNC(=N)N)NC(=O)[C@H](Cc2c[nH]cn2)NC(=O)[C@H]([C@@H](C)O)NC(=O)[C@H](CCCNC(=N)N)NC(=O)[C@H](CO)NC3=O)NC(=O)[C@H](CCCCN)NC(=O)[C@H](CC(=O)O)NC(=O)[C@H](CC(N)=O)NC(=O)[C@H](CC(=O)O)NC(=O)[C@@H]2CCCN2C1=O [[Ala5;hArg28]GpTx-1(1-34)] (H-DCLGAMRKCIPDNDKCCRPNLVCSRTH[hArg]WCKYVF-NH2; disulfide 2-17, 9-23, 16-30)",> 10,14
"CC[C@H](C)[C@@H]1NC(=O)[C@@H]2CSSC[C@@H]3NC(=O)[C@H](C)NC(=O)[C@H](CC(C)C)NC(=O)[C@H](CC(N)=O)NC(=O)[C@@H]4CCCN4C(=O)[C@H](CCCNC(=N)N)NC(=O)[C@H](CSSC[C@H](NC(=O)[C@@H](N)CC(=O)O)C(=O)N[C@@H](CC(C)C)C(=O)NCC(=O)N[C@@H](Cc4ccccc4)C(=O)N[C@@H](CCSC)C(=O)N[C@@H](CCCNC(=N)N)C(=O)N[C@@H](CCCCN)C(=O)N2)NC(=O)[C@H](CSSC[C@@H](C(=O)N[C@@H](CCCCN)C(=O)N[C@@H](Cc2ccc(O)cc2)C(=O)N[C@H](C(=O)N[C@@H](Cc2ccccc2)C(N)=O)C(C)C)NC(=O)[C@H](Cc2c[nH]c4ccccc24)NC(=O)[C@H](CCCCN)NC(=O)[C@H](Cc2cnc[nH]2)NC(=O)[C@H]([C@@H](C)O)NC(=O)[C@H](CCCNC(=N)N)NC(=O)[C@H](CO)NC3=O)NC(=O)[C@H](CCCCN)NC(=O)[C@H](CC(=O)O)NC(=O)[C@H](CC(N)=O)NC(=O)[C@H](CC(=O)O)NC(=O)[C@@H]2CCCN2C1=O [[Ala22]GpTx-1(1-34)] (H-DCLGFMRKCIPDNDKCCRPNLACSRTHKWCKYVF-NH2; disulfide 2-17, 9-23, 16-30)",6.2,6
"CC[C@H](C)[C@@H]1NC(=O)[C@@H]2CSSC[C@@H]3NC(=O)[C@H](C(C)C)NC(=O)[C@H](CC(C)C)NC(=O)[C@H](CC(N)=O)NC(=O)[C@@H]4CCCN4C(=O)[C@H](CCCNC(=N)N)NC(=O)[C@H](CSSC[C@H](NC(=O)[C@@H](N)CC(=O)O)C(=O)N[C@@H](CC(C)C)C(=O)NCC(=O)N[C@@H](Cc4ccccc4)C(=O)N[C@@H](CCSC)C(=O)N[C@@H](CCCNC(=N)N)C(=O)N[C@@H](CCCCN)C(=O)N2)NC(=O)[C@H](CSSC[C@@H](C(=O)N[C@@H](CCCCN)C(=O)N[C@@H](Cc2ccc(O)cc2)C(=O)N[C@H](C(=O)N[C@@H](Cc2ccccc2)C(N)=O)C(C)C)NC(=O)[C@H](Cc2c[nH]c4ccccc24)NC(=O)[C@H](CCCCN)NC(=O)[C@H](Cc2cnc[nH]2)NC(=O)[C@H]([C@@H](C)O)NC(=O)[C@H](C)NC(=O)[C@H](CO)NC3=O)NC(=O)[C@H](CCCCN)NC(=O)[C@H](CC(=O)O)NC(=O)[C@H](CC(N)=O)NC(=O)[C@H](CC(=O)O)NC(=O)[C@@H]2CCCN2C1=O [[Ala25]GpTx-1(1-34)] (H-DCLGFMRKCIPDNDKCCRPNLVCSATHKWCKYVF-NH2; disulfide 2-17, 9-23, 16-30)",10,12
"CC[C@H](C)[C@@H]1NC(=O)[C@@H]2CSSC[C@@H]3NC(=O)[C@H](C(C)C)NC(=O)[C@H](CC(C)C)NC(=O)[C@H](CC(N)=O)NC(=O)[C@@H]4CCCN4C(=O)[C@H](CCCNC(=N)N)NC(=O)[C@H](CSSC[C@H](NC(=O)[C@@H](N)CC(=O)O)C(=O)N[C@@H](CC(C)C)C(=O)N[C@@H](CCCNC(=N)N)C(=O)N[C@@H](CCSC)C(=O)N[C@@H](CCSC)C(=O)N[C@@H](CCCNC(=N)N)C(=O)N[C@@H](CCCCN)C(=O)N2)NC(=O)[C@H](CSSC[C@@H](C(=O)N[C@@H](CCCCN)C(=O)N[C@@H](Cc2ccc(O)cc2)C(=O)N[C@H](C(=O)N[C@@H](Cc2ccccc2)C(N)=O)C(C)C)NC(=O)[C@H](Cc2c[nH]c4ccccc24)NC(=O)[C@H](CCCCN)NC(=O)[C@H](Cc2c[nH]cn2)NC(=O)[C@H]([C@@H](C)O)NC(=O)[C@H](CCCNC(=N)N)NC(=O)[C@H](CO)NC3=O)NC(=O)[C@H](CCCCN)NC(=O)[C@H](CC(=O)O)NC(=O)[C@H](CC(N)=O)NC(=O)[C@H](CC(=O)O)NC(=O)[C@@H]2CCCN2C1=O [[Arg4;Met5]GpTx-1(1-34)] (H-DCLRMMRKCIPDNDKCCRPNLVCSRTHKWCKYVF-NH2; disulfide 2-17, 9-23, 16-30)",13.2,29
